Entries after “also recorded” stand apart in the source; their conditions may differ. Ends that are not written are not given here.
How the values were obtained:
microorganisms [1] = test: Morphology, biofilm and growth disrupting peptides (Table 5); format: cell-based; parameters: key: A: Peptide aggregates; B: Less hyphal formation; Clumps; Diffuse clumps and small polyps; F: Diffuse growth; H: Thin; I: Growth inhibition; Microcolony formation; Rippled; Small polyps; Thick; W: Halo formation on top, microlonies on bottom
Description: In certain embodiments peptides that induce alterations in phenotype or other biological activities can also be used as antimicrobial effector moieties.

microorganisms [2] = test: Targeting peptide binding to target microorganisms (Tables 3, 10, 12); conditions: microorganism(s) the targeting peptide binds, preferably 1x PBS
microorganisms [3] = test: Peptide activities: targeting/binding, antimicrobial, growth or phenotype altering (Tables 7, 8); format: cell-based; conditions: peptides having multiple activities
[4] = binding in aqueous buffers varied with peptide solubility
[5] = binding in aqueous buffers that varied with peptide solubility

Substance: PF-614: peptide having multiple activities (chain 1 GLDIYA; chain 2 GLDIYA; Peptide with targeting and/or antimicrobial activity)
- Organism, effect (microorganisms [1]; C. jejuni): C. jejuni (R)
- Organism, effect (microorganisms [1]; E. faecalis): E. faecalis (A)
- Organism, effect (microorganisms [1]; S. epidermidis): S. epidermidis (M)
- Organism, effect (microorganisms [1]; S. pneumoniae): S. pneumoniae (R)
- Target(s) (microorganisms [2]; [4]): S. epidermidis; also recorded: E. coli; also recorded: C. jeikeium
- Activities (microorganisms [3]): G B

Substance: PF-064: peptide having multiple activities (DYYGKE; Peptide with targeting and/or antimicrobial activity)
- Organism, effect: MRSA (microorganisms [1]; MRSA): MRSA (M)
- Organism, effect: S. epidermidis (microorganisms [1]; S. epidermidis): S. epidermidis (D)
- Target(s) (microorganisms [2]; [5]): E. coli
- Activities (microorganisms [3]): G B

Substance: PF-224: peptide having multiple activities (DYFYITLSQKNTF; Peptide with targeting and/or antimicrobial activity)
- Organism, effect: M. luteus (microorganisms [1]; M. luteus): M. luteus (T)
- Target(s) (microorganisms [2]; [4]): S. epidermidis; also recorded: P. aeruginosa; also recorded: A. baumannii
- Activities (microorganisms [3]): G B

Substance: PF-513: peptide having multiple activities (SNGVGLGVGIGSGIRF-NH2)
- Organism, effect (microorganisms [1]; S. pneumoniae): S. pneumoniae (M)
- Target(s) (microorganisms [2]; [4]): C. albicans
- Activities (microorganisms [3]): G B

Substance: PF-598: peptide having multiple activities (chain 1 MKFMLEVRNKAISAYKEITRTQI; chain 2 MKFMLEVRNKAISAYKEITRTQI; Peptide with targeting and/or antimicrobial activity)
- Organism, effect (microorganisms [1]; C. jejuni): C. jejuni (R)
- Organism, effect (microorganisms [1]; E. coli): E. coli (C)
- Organism, effect (microorganisms [1]; E. faecalis): E. faecalis (R)
- Organism, effect (microorganisms [1]; MRSA): MRSA (D)
- Organism, effect (microorganisms [1]; S. epidermidis): S. epidermidis (R)
- Organism, effect (microorganisms [1]; S. pneumoniae): S. pneumoniae (R)
- Target(s) (microorganisms [2]; [4]): S. epidermidis and M. luteus and P. mirabilis and P. aeruginosa and C. albicans and MRSA and S. pneumoniae and C. jeikeium
- Activities (microorganisms [3]): G B

Substance: PF-294: peptide having multiple activities (chain 1 DFLVNFLWFKGELNWGKKRYK; chain 2 DFLVNFLWFKGELNWGKKRYK; Peptide with targeting and/or antimicrobial activity)
- Organism, effect: S. epidermidis (microorganisms [1]; S. epidermidis): S. epidermidis (C)
- Target(s) (microorganisms [2]; [4]): S. epidermidis; also recorded: C. difficile
- Activities (microorganisms [3]): G B

Substance: PF-008: peptide having multiple activities (MIEIGSIAYLNGGSKKYNHILNQENR; Peptide with targeting and/or antimicrobial activity)
- Organism, effect: B. subtilis (microorganisms [1]): B. subtilis (D)
- Organism, effect: C. jejuni (microorganisms [1]; C. jejuni): C. jejuni (R)
- Target(s) (microorganisms [2]; [5]): S. epidermidis and M. luteus and MRSA and C. jejuni
- Activities (microorganisms [3]): G B

Substance: PF-301: peptide having multiple activities (GIVLIGLKLIPLLANVLN; Peptide with targeting and/or antimicrobial activity)
- Organism, effect: B. subtilis (microorganisms [1]): B. subtilis (C)
- Organism, effect: S. epidermidis (microorganisms [1]; S. epidermidis): S. epidermidis (C)
- Target(s) (microorganisms [2]; [4]): C. difficile
- Activities (microorganisms [3]): G B

Substance: PF-426: peptide having multiple activities (chain 1 MLQKYTQMISVTKCIITKNKKTQENVDAYN; chain 2 MLQKYTQMISVTKCIITKNKKTQENVDAYN; Peptide with targeting and/or antimicrobial activity)
- Organism, effect (microorganisms [1]; C. albicans): C. albicans (A)
- Organism, effect (microorganisms [1]; C. jejuni): C. jejuni (D)
- Organism, effect (microorganisms [1]; E. coli): E. coli (C)
- Organism, effect (microorganisms [1]; E. faecalis): E. faecalis (D)
- Organism, effect (microorganisms [1]; MRSA): MRSA (D)
- Organism, effect (microorganisms [1]; S. epidermidis): S. epidermidis (D)
- Organism, effect (microorganisms [1]; S. pneumoniae): S. pneumoniae (D)
- Target(s) (microorganisms [2]; [4]): S. epidermidis and E. coli and P. aeruginosa and C. albicans and MRSA and S. pneumoniae and E. faecalis and C. jeikeium
- Activities (microorganisms [3]): G B

Substance: PF-C064: peptide having multiple activities (DEEALEMGANLYAQFAIDFLNSKK; Peptide with targeting and/or antimicrobial activity)
- Organism, effect (microorganisms [1]; F. nucleatum): F. nucleatum (T)
- Target(s) (microorganisms [2]; [4]): A. naeslundii; also recorded: F. nucleatum; also recorded: P. gingivalis; also recorded: S. mutans; also recorded: T. denticola
- Activities (microorganisms [3]): G B

Substance: PF-011: peptide having multiple activities (MFCYYKQHKGDNFSIEEVKNIIADNEMKVN; Peptide with targeting and/or antimicrobial activity)
- Organism, effect: C. jeikeium (microorganisms [1]; C. jeikeium): C. jeikeium (C)
- Organism, effect: MRSA (microorganisms [1]; MRSA): MRSA (R)
- Target(s) (microorganisms [2]; [5]): M. luteus; also recorded: E. coli; also recorded: P. aeruginosa; also recorded: S. pneumoniae; also recorded: C. jeikeium
- Activities (microorganisms [3]): G B

Substance: PF-C142: peptide having multiple activities (chain 1 DFPPLSFFRRRFHAYTAPIDNFFGANPF; chain 2 DFPPLSFFRRRFHAYTAPIDNFFGANPF; Peptide with targeting and/or antimicrobial activity)
- Organism, effect (microorganisms [1]; S. mutans): S. mutans (I)
- Target(s) (microorganisms [2]; [4]): A. naeslundii; also recorded: F. nucleatum; also recorded: P. gingivalis; also recorded: S. mutans; also recorded: T. denticola
- Activities (microorganisms [3]): G B

Substance: PF-776: peptide having multiple activities (VSILLYLSATIILPNVLRLLVARAIIVRV; Peptide with targeting and/or antimicrobial activity)
- Organism, effect (microorganisms [1]; E. coli): E. coli (C)
- Organism, effect (microorganisms [1]; M. luteus): M. luteus (C)
- Organism, effect (microorganisms [1]; MRSA): MRSA (D)
- Organism, effect (microorganisms [1]; S. epidermidis): S. epidermidis (D)
- Organism, effect (microorganisms [1]; S. mutans): S. mutans (D)
- Organism, effect (microorganisms [1]; S. pneumoniae): S. pneumoniae (C)
- Target(s) (microorganisms [2]; [4]): S. epidermidis and M. luteus and P. mirabilis and C. albicans and MRSA and S. pneumoniae and E. faecalis
- Activities (microorganisms [3]): G B

Substance: PF-514: peptide having multiple activities (QRFYKLFYHIDLTNEQALKLFQVK; Peptide with targeting and/or antimicrobial activity)
- Organism, effect (microorganisms [1]; E. coli): E. coli (R)
- Organism, effect (microorganisms [1]; E. faecalis): E. faecalis (C)
- Organism, effect (microorganisms [1]; S. epidermidis): S. epidermidis (C)
- Organism, effect (microorganisms [1]; S. pneumoniae): S. pneumoniae (M)
- Target(s) (microorganisms [2]; [4]): S. epidermidis and E. coli and P. aeruginosa and C. albicans and MRSA and S. pneumoniae and E. faecalis and C. jeikeium
- Activities (microorganisms [3]): G B

Substance: PF-737: peptide having multiple activities (KSSGSSASASSTAGGSSSK; Peptide with targeting and/or antimicrobial activity)
- Organism, effect (microorganisms [1]; S. pneumoniae): S. pneumoniae (D)
- Target(s) (microorganisms [2]; [4]): S. epidermidis; also recorded: S. pneumoniae
- Activities (microorganisms [3]): G B

Substance: PF-639: peptide having multiple activities (chain 1 QATQIKSWIDRLLVSED; chain 2 QATQIKSWIDRLLVSED; Peptide with targeting and/or antimicrobial activity)
- Organism, effect (microorganisms [1]; C. albicans): C. albicans (B)
- Organism, effect (microorganisms [1]; E. faecalis): E. faecalis (H)
- Organism, effect (microorganisms [1]; MRSA): MRSA (R)
- Organism, effect (microorganisms [1]; S. pneumoniae): S. pneumoniae (I)
- Target(s) (microorganisms [2]; [4]): S. pneumoniae; also recorded: C. jeikeium
- Activities (microorganisms [3]): G B

Substance: PF-156: peptide having multiple activities (LITAEQPATAPIAGK; Peptide with targeting and/or antimicrobial activity)
- Organism, effect: MRSA (microorganisms [1]; MRSA): MRSA (H)
- Target(s) (microorganisms [2]; [4]): S. epidermidis; also recorded: C. jeikeium
- Activities (microorganisms [3]): G B

Substance: PF-466: peptide having multiple activities (VRKSDQ; Peptide with targeting and/or antimicrobial activity)
- Organism, effect (microorganisms [1]; S. pneumoniae): S. pneumoniae (H)
- Target(s) (microorganisms [2]; [4]): MRSA and C. jeikeium and C. jejuni
- Activities (microorganisms [3]): G B

Substance: PF-425: peptide having multiple activities (chain 1 MMELVLKTIIGPIVVGVVLRIVDKWLNKDK; chain 2 MMELVLKTIIGPIVVGVVLRIVDKWLNKDK; Peptide with targeting and/or antimicrobial activity)
- Organism, effect (microorganisms [1]; C. albicans): C. albicans (A)
- Organism, effect (microorganisms [1]; C. jejuni): C. jejuni (D)
- Organism, effect (microorganisms [1]; E. coli): E. coli (C)
- Organism, effect (microorganisms [1]; E. faecalis): E. faecalis (D)
- Organism, effect (microorganisms [1]; MRSA): MRSA (D)
- Organism, effect (microorganisms [1]; P. aeruginosa): P. aeruginosa (A)
- Organism, effect (microorganisms [1]; S. epidermidis): S. epidermidis (D)
- Organism, effect (microorganisms [1]; S. pneumoniae): S. pneumoniae (D)
- Target(s) (microorganisms [2]; [4]): S. epidermidis and M. luteus and E. coli and P. aeruginosa and C. albicans and MRSA and S. pneumoniae and C. jeikeium
- Activities (microorganisms [3]): G B

Substance: PF-020: peptide having multiple activities (MKIILLLFLIFGFIVVVTLKSEHQLTLFSI; Peptide with targeting and/or antimicrobial activity)
- Organism, effect: M. luteus (microorganisms [1]; M. luteus): M. luteus (C)
- Organism, effect: MRSA (microorganisms [1]; MRSA): MRSA (C)
- Organism, effect: S. epidermidis (microorganisms [1]; S. epidermidis): S. epidermidis (C)
- Organism, effect: S. mutans (microorganisms [1]; S. mutans, class symbol): S. mutans (F)
- Organism, effect: S. pneumoniae (microorganisms [1]; S. pneumoniae): S. pneumoniae (D)
- Target(s) (microorganisms [2]; [5]): S. epidermidis and M. luteus and C. albicans and MRSA and S. pneumoniae and E. faecalis
- Activities (microorganisms [3]): G B

Substance: PF-049: peptide having multiple activities (AYYLKRREEKGK; Peptide with targeting and/or antimicrobial activity)
- Organism, effect: MRSA (microorganisms [1]; MRSA): MRSA (S)
- Target(s) (microorganisms [2]; [5]): S. epidermidis and MRSA and C. jeikeium and C. jejuni
- Activities (microorganisms [3]): G B
